Columns and labels:
[1] = Human liver microsomal (HLM) stability assay; type: in vitro ADME; conditions: for microsomal CLint at 3 μM / half-life at 3 μM: both sexes, pH 7.4, human liver microsomes, 3 μM test compound; for microsomal CLint at 3 μM: read-out: CLint (μL/min/mg protein) HLM; for half-life at 3 μM: read-out: T½ (min) HLM; for metabolic stability compared with perhexiline (in words): human and rat liver microsomes, versus perhexiline
Procedure: (§1) The metabolic stability of fluoroperhexiline derivatives was measured by determination of the rate of compound disappearance when incubated in the presence of both human and rat liver microsomes. Liver microsomes are prepared from the endoplasmic reticulum of hepatocytes and are the primary source of the most important enzymes (cytochrome P450) involved in drug metabolism. Study of drug stability in the presence of liver microsomes is accepted as a valuable model permitting rapid prediction of in vivo drug stability.
(§2) Human and rat liver microsomes were obtained from a commercial source. Test compounds (3 μM) were incubated with pooled liver microsomes (male and female). Samples were incubated for a 45 minute period and removed at 5 time points and test compounds were analysed by LC-MS/MS.
(§3) Microsomes (final protein concentration 0.5 mg/mL), 0.1 M phosphate buffer pH 7.4, and test compound (final concentration 3 μM; diluted from 10 mM stock solution to give a final DMSO concentration of 0.25%) were incubated at 37° C. prior to the addition of NADPH (final concentration 1 mM) to initiate the reaction. The final incubation volume was 25 μL. A control incubation was included for each compound tested, where 0.1 M phosphate buffer pH 7.4 was added instead of NADPH. The control compounds testosterone and 7-hydroxycoumarin were included in each experiment and all incubations were performed singularly for each compound.
(§4) Each compound was incubated for 0, 5, 15, 30, and 45 minutes. The control (minus NADPH) was incubated for 45 minutes only. The reactions were stopped by the addition of 50 μL methanol containing internal standard at the appropriate time points. The incubation plates were centrifuged at 2500 rpm for 20 minutes at 4° C. to precipitate the protein.
(§5) Following protein precipitation, the sample supernatants were combined in cassettes of up to 4 compounds and analysed using standard LC-MS/MS conditions.
(§6) From a plot of the natural logarithm of the peak area ratio (i.e., the ratio of compound peak area:internal standard peak area) against time, the gradient of the line was determined. Subsequently, half-life and intrinsic clearance were calculated using the equations below:
(§7) Eliminated Rate Constant (k)=(−Gradient).
(§8) Half-Life (t1/2) (min)=0.063/k.
(§9) Intrinsic Clearance (CLint) […]=(V×0.693)/t1/2. • wherein V=Incubation Volume (μL/mg microsomal protein).

[2] = Rat liver microsomal (RLM) stability assay; type: in vitro ADME; conditions: both sexes, pH 7.4, rat liver microsomes, 3 μM test compound; for microsomal CLint at 3 μM: read-out: CLint (μL/min/mg protein) RLM; for half-life at 3 μM: read-out: T½ (min) RLM
Procedure: as §1, §2, §3, §4, §5, §6, §7, §8, §9

| microsomal CLint at 3 μM [1] | half-life at 3 μM [1] | microsomal CLint at 3 μM [2] | half-life at 3 μM [2] | SMILES | metabolic stability compared with perhexiline (in words) [1] |
| --- | --- | --- | --- | --- | --- |
| 2.6 µL/min/mg | 525 min | 19 µL/min/mg | 72 min | FC1(F)CCC(C(CC2CCCCN2)C2CCCCC2)CC1 (mixture of isomers) [FPER-001, 2-(2-Cyclohexyl-2-(4,4-difluorocyclohexyl)ethyl)piperidine] | substantial increase in metabolic stability |
| 21.3 µL/min/mg | 65 min | 129 µL/min/mg | 11 min | FC1CCC(C(CC2CCCCN2)C2CCCCC2)CC1 (mixture of isomers) [FPER-003, 2-(2-Cyclohexyl-2-(4-fluorocyclohexyl)ethyl)piperidine] | substantial decrease in stability |

| SMILES | microsomal CLint at 3 μM [1] | half-life at 3 μM [1] | microsomal CLint at 3 μM [2] | half-life at 3 μM [2] | metabolic stability compared with perhexiline (in words) [1] |
| --- | --- | --- | --- | --- | --- |
| C1CCC(C(CC2CCCCN2)C2CCCCC2)CC1 (centres unmarked) [Perhexiline, 2-(2,2-dicyclohexylethyl)piperidine] | 13.8 µL/min/mg | 100 min | 65 µL/min/mg | 21 min |  |
